Measured values: USRE39591E1, “6-O-substituted ketolides having antibacterial activity” (Abbott Laboratories, priority 1996, dated 2007)
≈ marks a conversion by molar mass, not a printed value.

System: up to 32 different microorganisms
Assay: in vitro antibacterial activity (MIC), agar dilution on Brain Heart Infusion (BHI) agar with Steers replicator
Assay type: cell-based
Settings: unit assumed
Experimental: Representative compounds of the present invention were assayed in vitro for antibacterial activity as follows: Twelve petri dishes containing successive aqueous dilutions of the test compound mixed with 10 mL of sterilized Brain Heart Infusion (BHI) agar (Difco 0148-01-5) were prepared. Each plate was inoculated with 1:100 (or 1:10 for slow-growing strains, such as Micrococcus and Streptococcus) dilutions of up to 32 different microorganisms, using a Steers replicator block. The inoculated plates were incubated at 35°-37° C. for 20 to 24 hours. In addition, a control plate, using BHI agar containing no test compound, was prepared and incubated at the beginning and end of each test.
An additional plate containing a compound having known susceptibility patterns for the organisms being tested and belonging to the same antibiotic class as the test compound was also prepared and incubated as a further control, as well as to provide test-to-test comparability. Erythromycin A was used for this purpose.
After incubation, each plate was visually inspected. The minimum inhibitory concentration (MIC) was defined as the lowest concentration of drug yielding no growth, a slight haze, or sparsely isolated colonies on the inoculum spot as compared to the growth control.

Row | SMILES | MIC (organism code AA) [µg/mL] | MIC (organism code BB) [µg/mL] | MIC (organism code CC) [µg/mL] | MIC (organism code DD) [µg/mL] | MIC (organism code EE) [µg/mL] | MIC (organism code FF) [µg/mL] | MIC (organism code GG) [µg/mL] | MIC (organism code HH) [µg/mL] | MIC (organism code II) [µg/mL] | MIC (organism code JJ) [µg/mL] | MIC (organism code KK) [µg/mL] | MIC (organism code LL) [µg/mL] | MIC (organism code MM) [µg/mL] | MIC (organism code NN) [µg/mL] | MIC (organism code OO) [µg/mL] | MIC (organism code PP) [µg/mL] | MIC (organism code XX) [µg/mL] | MIC (organism code YY) [µg/mL] | MIC (organism code ZZ) [µg/mL] | MIC (organism code ZZA) [µg/mL] | also measured
1 | CCC1OC(=O)C(C)C(=O)C(C)C(OC2OC(C)CC(N(C)C)C2O)C(C)(OCC=Cc2ccc(-c3ccon3)s2)CC(C)C(=O)C(C)C2NC(=O)OC12C (stereo not shown) [Example 292, Compound of Formula (IX): L is CO, T is NH, R is —CH2CH═CH-(5-(3-ixoxazolyl)-2-thiophenyl)] | 0.1 | 0.1 | > 100 | 0.1 | 0.1 | 0.1 | > 100 | 0.05 | 0.02 | ≤ 0.005 | 0.02 | 0.01 | 12.5 | 0.05 | 0.02 | 0.1 | 0.03 | 0.03 | 16 | 0.25 | MIC (organism code QQ): 50 µg/mL; MIC (organism code RR): 0.2 µg/mL; MIC (organism code SS): 100 µg/mL; MIC (organism code TT): > 100 µg/mL; MIC (organism code UU): 0.78 µg/mL; MIC (organism code VV): 0.02 µg/mL; MIC (organism code WW): 2 µg/mL
2 | CCC1OC(=O)C(C)C(=O)C(C)C(OC2OC(C)CC(N(C)C)C2O)C(C)(OCC=Cc2cccc3c([N+](=O)[O-])cccc23)CC(C)C(=O)C(C)C2NC(=O)OC12C (stereo not shown) [Example 281, Compound of Formula (IX): L is CO, T is NH2, R is —CH2CH═CH-(5-nitronaphthyl)] | 0.78 | 0.78 | > 100 | 0.78 | 0.78 | 0.78 | > 100 | 0.78 | 0.39 | 0.05 | 0.1 | 0.1 | 50 | 0.39 | 0.2 | 0.78 | 0.25 | 0.25 | 64 | 1 | MIC (organism code QQ): > 100 µg/mL; MIC (organism code RR): 3.1 µg/mL; MIC (organism code SS): > 100 µg/mL; MIC (organism code TT): > 100 µg/mL; MIC (organism code UU): 3.1 µg/mL; MIC (organism code VV): 3.1 µg/mL; MIC (organism code WW): 32 µg/mL
3 | CCC1OC(=O)C(C)C(=O)C(C)C(OC2OC(C)CC(N(C)C)C2O)C(C)(OCC=Cc2ccc3[nH]cnc3c2)CC(C)C(=O)C(C)C2NC(=O)OC12C (stereo not shown) [Example 205, R is —CH2CH═CH-(5-benzimidazolyl)] | – | – | – | – | – | – | – | – | – | – | – | – | – | – | – | – | 0.03 (≈ 0.0397 µM) | 0.06 (≈ 0.0795 µM) | > 64 | 4 (≈ 5.3 µM) | –
4 | CC[C@H]1OC(=O)[C@H](C)C(=O)[C@H](C)[C@@H](O[C@@H]2O[C@H](C)C[C@H](N(C)C)[C@H]2O)[C@@](C)(OCCNCc2ccc3ncccc3c2)C[C@@H](C)C(=O)[C@H](C)[C@H]2NC(=O)O[C@@]21C [Example 227, Compound of Formula (IX): L is CO, T is NH, R is —CH2CH2NHCH2(6-quinolyl)] | 0.2 | 0.2 | > 100 | 0.2 | 0.2 | 0.2 | > 100 | 0.2 | 0.05 | ≤ 0.005 | 0.05 | 0.02 | 50 | 0.39 | 0.05 | 0.39 | 0.03 | 0.03 | > 64 | 2 | MIC (organism code QQ): 6.2 µg/mL; MIC (organism code RR): 0.1 µg/mL; MIC (organism code SS): 25 µg/mL; MIC (organism code TT): > 100 µg/mL; MIC (organism code UU): 1.56 µg/mL; MIC (organism code VV): 0.05 µg/mL; MIC (organism code WW): 2 µg/mL
